From patent publication US8461328B2, “Tricyclic heterocyclic compounds, compositions and methods of use thereof” (Genentech, Inc., priority 2010, dated 2013)

Assays:
Type in all cases: biochemical
JAK3 = biological target: T1, JAK3 (Homo sapiens, UniProt P52333); assay: JAK3 inhibition (Table 4); conditions: read-out: JAK3 Ki
T1 construct: made in house; host or cells: SF9 insect cells (baculovirus)

JAK2 = biological target: T2, JAK2 (Homo sapiens, UniProt O60674); assay: JAK2 inhibition (Table 4); conditions: read-out: JAK2 Ki
T2 construct: made in house; host or cells: SF9 insect cells (baculovirus)

TYK2 = biological target: T3, TYK2 (Homo sapiens, UniProt P29597); assay: TYK2 inhibition (Table 4)
T3 construct: made in house; host or cells: SF9 insect cells (baculovirus)
T3 sequence (P29597 873-1187): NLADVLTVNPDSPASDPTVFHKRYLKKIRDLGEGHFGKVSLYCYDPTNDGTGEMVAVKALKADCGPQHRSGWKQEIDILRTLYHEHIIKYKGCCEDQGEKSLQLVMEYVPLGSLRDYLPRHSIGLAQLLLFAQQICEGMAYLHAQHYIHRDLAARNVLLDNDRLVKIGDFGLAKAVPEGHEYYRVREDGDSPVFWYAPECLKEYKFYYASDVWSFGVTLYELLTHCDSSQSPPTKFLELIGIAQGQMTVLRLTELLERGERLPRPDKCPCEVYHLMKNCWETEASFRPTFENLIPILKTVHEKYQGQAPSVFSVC

JAK1 = biological target: T4, JAK1 (Homo sapiens, UniProt P23458); assay: JAK1 inhibition (Table 4); conditions: read-out: JAK1 Ki
T4 construct: made in house; host or cells: SF9 insect cells (baculovirus)
T4 sequence (P23458 852-1154): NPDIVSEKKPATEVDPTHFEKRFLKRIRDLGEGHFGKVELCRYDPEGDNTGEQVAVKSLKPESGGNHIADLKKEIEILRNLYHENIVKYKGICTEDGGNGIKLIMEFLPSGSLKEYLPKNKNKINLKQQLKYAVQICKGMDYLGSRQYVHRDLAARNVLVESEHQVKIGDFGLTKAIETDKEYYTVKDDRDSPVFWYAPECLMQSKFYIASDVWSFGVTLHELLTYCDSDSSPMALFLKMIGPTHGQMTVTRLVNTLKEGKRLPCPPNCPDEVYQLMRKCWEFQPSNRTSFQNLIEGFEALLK

T1 sequence (P52333 783-1124): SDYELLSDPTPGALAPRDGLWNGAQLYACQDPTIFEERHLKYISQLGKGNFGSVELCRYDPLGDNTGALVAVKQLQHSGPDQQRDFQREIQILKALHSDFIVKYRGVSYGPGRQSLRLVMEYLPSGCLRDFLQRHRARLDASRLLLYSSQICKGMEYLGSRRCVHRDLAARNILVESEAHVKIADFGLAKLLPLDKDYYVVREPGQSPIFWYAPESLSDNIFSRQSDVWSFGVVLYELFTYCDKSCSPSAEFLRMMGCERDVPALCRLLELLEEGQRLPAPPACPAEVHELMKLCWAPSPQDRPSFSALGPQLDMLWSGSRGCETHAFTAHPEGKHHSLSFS
T2 sequence (O60674 812-1132): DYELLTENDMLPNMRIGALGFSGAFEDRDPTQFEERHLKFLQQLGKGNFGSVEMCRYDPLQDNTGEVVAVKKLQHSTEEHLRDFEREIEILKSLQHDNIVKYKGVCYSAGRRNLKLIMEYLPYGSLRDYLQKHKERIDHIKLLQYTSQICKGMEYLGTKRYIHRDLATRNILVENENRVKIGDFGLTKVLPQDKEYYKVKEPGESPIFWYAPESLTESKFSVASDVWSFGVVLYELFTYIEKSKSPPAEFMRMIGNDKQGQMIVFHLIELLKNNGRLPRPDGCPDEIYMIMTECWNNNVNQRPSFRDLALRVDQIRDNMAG

| Ki (JAK3) | Ki (JAK2) | Ki (TYK2) | Ki (JAK1) | SMILES |
| --- | --- | --- | --- | --- |
| 36.2 nM | 7.44 nM | 124 nM | 4.46 nM | FC(F)(F)c1cccc(CN2CCC(n3cnc4cnc5[nH]ccc5c43)CC2)n1 [Example 314, 1-[1-(6Trifluoromethyl-pyridin-2-ylmethyl)-piperidin-4-yl]-1,6-dihydro-1,3,5,6-tetraaza-as-indacene] |
| 41.3 nM | 6.28 nM | 29.2 nM | 5.7 nM | O=C(C1CCC1)N1CCC[C@@H](n2cnc3cnc4[nH]ccc4c32)C1 [Example 315, Cyclobutyl-[(R)-3-(6H-1,3,5,6-tetraaza-as-indacen-1-yl)-piperidin1-yl]-methanone] |
| 9.24 nM | 3.2 nM | 17.7 nM | 2.77 nM | N#CC1(C(=O)N2CCC[C@@H](n3cnc4cnc5[nH]ccc5c43)C2)CCC1 [Example 316, 1-[(R)-3-(6H-1,3,5,6-Tetraaza-as-indacen-1-yl)-piperidine-carbonyl]-cyclobutanecarbonitrile] |
| 37.4 nM | 5.78 nM | 94.6 nM | 2.9 nM | CC(C)(C)OC(=O)NC1CC(n2cnc3cnc4[nH]ccc4c32)C1 (centres unmarked) [Example 317, [3-(6H-1,3,5,6-Tetraaza-as-indacen-1-yl)-cyclobutyl]-carbamic acid tert-butyl ester] |
| 1160 nM | 181 nM | 608 nM | 56 nM | NC1CC(n2cnc3cnc4[nH]ccc4c32)C1 (centres unmarked) [Example 320, 3-(6H-1,3,5,6-Tetraaza-as-indacen-1-yl)-cyclobutylamine] |
| 19.5 nM | 21.6 nM | 1360 nM | 5.3 nM | c1ccc(CN2CCC(n3c(C4CCC4)nc4cnc5[nH]ccc5c43)CC2)cc1 [Example 325, 1-(1-Benzyl-piperidin-4-yl)-2-cyclobutyl-1,6-dihydro-1,3,5,6-tetraaza-as-indacene] |
| 552 nM | 938 nM | 2630 nM | 27.6 nM | c1cc2c(ncc3nc(C4CCC4)n(C4CCNCC4)c32)[nH]1 [Example 326, 2-Cyclobutyl-1-piperidin-4-yl-1,6-dihydro-1,3,5,6-tetraaza-as-indacene] |
| 20 nM | 16.9 nM | 138 nM | 4.84 nM | N#CCCN1CCC(n2c(C3CCC3)nc3cnc4[nH]ccc4c32)CC1 [Example 327, 3-[4-(2-Cyclobutyl-6H-1,3,5,6-tetraaza-as-indacen-1-yl)-piperidin-1-yl]-propionitrile] |
| 173 nM | 41.6 nM | 230 nM | 16.5 nM | N#Cc1cccc(CNC2CC(n3cnc4cnc5[nH]ccc5c43)C2)c1 (centres unmarked) [Example 329, 3-{[3-(6H-1,3,5,6-Tetraaza-as-indacen-1-yl)-cyclobutylamino]-methyl}-benzonitrile] |
| 64.4 nM | 16 nM | 45.8 nM | 6.08 nM | N#CCCNC1CC(n2cnc3cnc4[nH]ccc4c32)C1 (centres unmarked) [Example 331, 3-[3-(6H-1,3,5,6-Tetraaza-as-indacen-1-yl)-cyclobutylamino]-propionitrile] |
| 170 nM | 25.3 nM | 59.1 nM | 11.7 nM | c1ncc(CN[C@H]2CC[C@@H](n3cnc4cnc5[nH]ccc5c43)CC2)cn1 [Example 333, Pyrimidin-5-ylmethyl-[4-(6H-1,3,5,6-tetraaza-as-indacen-1-yl)-cyclohexyl]-amine] |
| 67.6 nM | 127 nM | 944 nM | 31.2 nM | CC(C)(O)c1nc2cnc3[nH]ccc3c2n1C1CCN(CCC#N)CC1 [Example 335, 3-{4-[2-(1-Hydroxy-1-methyl-ethyl)-6H-1,3,5,6-tetraaza-as-indacen-1-yl]-piperidin-1-yl}-propionitrile] |
| 656 nM | 63.4 nM | 77.6 nM | 16 nM | c1cncc(CN[C@H]2CC[C@H](n3cnc4cnc5[nH]ccc5c43)CC2)c1 [Example 336, Pyridin-3-ylmethyl-[4-(6H-1,3,5,6-tetraaza-as-indacen-1-yl)-cyclohexyl]-amine] |
| 10.7 nM | 5.31 nM | 33.7 nM | 2.9 nM | N#CCCN1CCC(n2c(C3CC3)nc3cnc4[nH]ccc4c32)CC1 [Example 337, 3-[4-(2-Cyclopropyl-6H-1,3,5,6-tetraaza-as-indacen-1-yl)-piperidin-1-yl]-propionitrile] |
| 288 nM | 50.1 nM | 158 nM | 21.1 nM | OCCN1CCC(n2cnc3cnc4[nH]ccc4c32)CC1 [Example 338, 2-[4-(6H-1,3,5,6-Tetraaza-as-indacen-1-yl)-piperidin-1-yl]-ethanol] |
| 40.5 nM | 7.83 nM | 22.5 nM | 3.89 nM | FC(F)(F)CCN1CCC(n2cnc3cnc4[nH]ccc4c32)CC1 [Example 339, 1-[1-(3,3,3-Trifluoro-propyl)-piperidin-4-yl]-1,6-dihydro-1,3,5,6-tetraaza-as-indacene] |
| 24.6 nM | 19.5 nM | 101 nM | 17.2 nM | N#C[C@@H]1C[C@@H]1C(=O)N1CCC[C@@H](n2cnc3cnc4[nH]ccc4c32)C1 [Example 340, (1R,2S)-2-[(R)-3-(6H-1,3,5,6-Tetraaza-as-indacen-1-yl)-piperidine-1-carbonyl]-cyclopropanecarbonitrile] |
| 169 nM | 7.47 nM | 106 nM | 10.2 nM | CN([C@H]1CC[C@H](n2cnc3cnc4[nH]ccc4c32)CC1)S(=O)(=O)C1CC1 [Example 341, Cyclopropanesulfonic acid methyl-[4-(6H-1,3,5,6-tetraaza-as-indacen1-yl)-cyclohexyl]-amide] |
| 51.8 nM | 31.5 nM | 140 nM | 13.9 nM | CC(C)(O)Cc1nc2cnc3[nH]ccc3c2n1C1CCN(CCC#N)CC1 [Example 346, 3-{4-[2-(2-Hydroxy-2-methyl-propyl)-6H-1,3,5,6-tetraaza-as-indacen-1-yl)-piperidin-1-yl}-propionitrile] |
| 136 nM | 14.5 nM | 130 nM | 4.96 nM | O=C(N[C@H]1CC[C@H](n2cnc3cnc4[nH]ccc4c32)CC1)OC1CCCC1 [Example 347, [4-(6H-1,3,5,6-Tetraaza-as-indacen-1-yl)-cyclohexyl]-carbamic acid cyclopentyl ester] |
| 78.5 nM | 15 nM | 148 nM | 5.6 nM | CC1(COC(=O)N[C@H]2CC[C@H](n3cnc4cnc5[nH]ccc5c43)CC2)CC1 [Example 348, [4-(6H-1,3,5,6-Tetraaza-as-indacen-1-yl)-cyclohexyl]-carbamic acid 1-methyl-cyclopropylmethyl ester] |
| 120 nM | 19 nM | 113 nM | 15.3 nM | CC(C)(C)OC(=O)N1CCC[C@@H](n2cnc3cnc4[nH]ccc4c32)C1 [Example 349, (R)-3-(6H-1,3,5,6-Tetraaza-as-indacen-1-yl)-piperidine-1-carboxylic acid tert-butyl ester] |
| 216 nM | 15 nM | 87.4 nM | 8.27 nM | COC(=O)N[C@H]1CC[C@H](n2nnc3cnc4[nH]ccc4c32)CC1 [Example 353, [4-(6H-1,2,3,5,6-Pentaaza-as-indacen-1-yl)-cyclohexyl]-carbamic acid methyl ester] |
| 120 nM | 5.24 nM | 10.9 nM | 2.5 nM | Cc1nc2cnc3[nH]ccc3c2n1C1CCN(CC(O)(C(F)(F)F)C(F)(F)F)CC1 [Example 354, 1,1,1,3,3,3-Hexafluoro-2-[4-(2-methyl-6H-1,3,5,6-tetraaza-as-indacen-1-yl)-piperidin-1-ylmethyl]-propan-2-ol] |
| 209 nM | 28.5 nM | 192 nM | 10.6 nM | COCCOC(=O)N[C@H]1CC[C@H](n2cnc3cnc4[nH]ccc4c32)CC1 [Example 356, [4-(6H-1,3,5,6-Tetraaza-as-indacen-1-yl)-cyclohexyl]-carbamic acid 2-methoxy-ethyl ester] |
| 434 nM | 82.6 nM | 147 nM | 22.2 nM | CN(C)CCOC(=O)N[C@H]1CC[C@H](n2cnc3cnc4[nH]ccc4c32)CC1 [Example 358, [4-(6H-1,3,5,6-Tetraaza-as-indacen-1-yl)-cyclohexyl]-carbamic acid 2-dimethylamino-ethyl ester] |
| 67.1 nM | 10.5 nM | 52.8 nM | 12.4 nM | O=S(=O)(c1ccccc1)N1CCC[C@@H](n2cnc3cnc4[nH]ccc4c32)C1 [Example 359, 1-((R)-1-Benzenesulfonyl-piperidin-3-yl)-1,6-dihydro-1,3,5,6-tetraaza-as-indacene] |
| 37.2 nM | 8.12 nM | 40.8 nM | 8.43 nM | N#Cc1ccc(S(=O)(=O)N2CCC[C@@H](n3cnc4cnc5[nH]ccc5c43)C2)cc1 [Example 360, 4-[(R)-3-(6H-1,3,5,6-Tetraaza-as-indacen-1-yl)-piperidine-1-sulfonyl]-benzonitrile] |
| 354 nM | 248 nM | 732 nM | 379 nM | CS(=O)(=O)N1CCC(n2c(-c3cccnc3)nc3cnc4[nH]ccc4c32)CC1 [Example 361, 1-(1-Methanesulfonyl-piperidin-4-yl)-2-pyridin-3-yl-1,6-dihydro-1,3,5,6-tetraaza-as-indacene] |
